The subject of the series is RAW 264.7 macrophages. Put plainly: MTT cell viability / cytotoxicity and cyto-protection. Particulars: 62.5 to 500 μg/mL. The format is cell-based. Here is the method: As macrophages, RAW 264.7 cells (American Type Culture Collection; ATCCUSA) were cultured in DMEM (Gibco/BRL, Canada) supplemented with 10% heat inactivated FBS and 1% antibiotics in 37° C. at 100% humidity under 5% CO2. […] After 24 hours, culture medium containing 3-(4,5-dimethylthiazol-2-yl)-2,5-diphenyltetrazolium bromide (MTT) (0.1 mg/mL) was added to each well. After 1 hour, culture medium was removed, and formazan crystals were dissolved in dimethyl sulfoxide (DMSO) and measured at 550 nm using a microplate reader. The concentration of NO in the culture medium was determined by Griess reagent (Abekura et al. Int Immunopharmacol 68:156, 2019). The cell viability of the control group untreated with Octominin was designated as 100%, which indicates no cytotoxicity

Consider one compound from patent publication US20230024652A1, “PHARMACEUTICAL COMPOSITION COMPRISING SMALL OCTOPUS-DERIVED PEPTIDE FOR TREATMENT OF INFLAMMATORY DISEASE” (NATIONAL MARINE BIODIVERSITY INSTITUTE OF KOREA, priority 2020, published 2023).

Where a SMILES comes first, the peptide text is derived from it.

For `CC[C@H](C)[C@H](NC(=O)[C@H](C)NC(=O)[C@H](CCCCN)NC(=O)CNC(=O)[C@H](C)NC(=O)[C@H](Cc1c[nH]cn1)NC(=O)[C@@H](NC(=O)[C@H](C)NC(=O)CNC(=O)[C@H](CCCNC(=N)N)NC(=O)[C@@H](NC(=O)[C@H](CC(C)C)NC(=O)[C@H](Cc1c[nH]c2ccccc12)NC(=O)CN)[C@@H](C)CC)[C@@H](C)CC)C(=O)N[C@@H](Cc1c[nH]cn1)C(=O)NCC(=O)N[C@@H](CC(C)C)C(=O)N[C@H](C(=O)N[C@@H](Cc1c[nH]cn1)C(=O)N[C@@H](CCCNC(=N)N)C(=O)N[C@@H](CCCNC(=N)N)C(=O)N[C@@H](CCCNC(=N)N)C(=O)N[C@@H](Cc1c[nH]cn1)C(=O)O)[C@@H](C)CC` [Octominin] (H-GWLIRGAIHAGKAIHGLIHRRRH-OH), the toxicity to macrophages result is given as “non-toxic”. The “cell viability reduction (cytotoxicity, MTT)” value (RAW 264.7 macrophages without LPS, compared with control group) was “did not show any significant cell viability reduction”.
